# What was measured:
# Test in all cases: Post-emergence efficacy, glasshouse spray test
# Assay type in all cases: in vivo
# [1] = system: Amaranthus palmeri (AMAPA); conditions: Application Rate 500 g/Ha, evaluated after 13 days; for pest or weed control at 500 g/ha: Amaranthus palmeri, post-emergence, 312 h, read-out: Control of weed species after post-emergence application, AMAPA (100=total damage to plant; 0=no damage to plant)
# Outline: (§1)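 Each value is a visual injury score (0 none, 100 total) read 13 days post-application. Plants were 14 days old at spraying and kept at 24/16° C, 14 h light.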
# [2] = system: Chenopodium album (CHEAL); conditions: Application Rate 500 g/Ha, evaluated after 13 days; for pest or weed control at 500 g/ha: Chenopodium album, post-emergence, 312 h, read-out: Control of weed species after post-emergence application, CHEAL (100=total damage to plant; 0=no damage to plant)
# Outline: as §1
# [3] = system: Digitaria sanguinalis (DIGSA); conditions: Application Rate 500 g/Ha, evaluated after 13 days; for pest or weed control at 500 g/ha: Digitaria sanguinalis, post-emergence, 312 h, read-out: Control of weed species after post-emergence application, DIGSA (100=total damage to plant; 0=no damage to plant)
# Outline: as §1
# [4] = system: Echinochloa crus-galli (ECHCG); conditions: Application Rate 500 g/Ha, evaluated after 13 days; for pest or weed control at 500 g/ha: Echinochloa crus-galli, post-emergence, 312 h, read-out: Control of weed species after post-emergence application, ECHCG (100=total damage to plant; 0=no damage to plant)
# Outline: as §1
# Eleusine indica (ELEIN) = conditions: Application Rate 500 g/Ha, evaluated after 13 days; for pest or weed control at 500 g/ha: Eleusine indica, post-emergence, 312 h, read-out: Control of weed species after post-emergence application, ELEIN (100=total damage to plant; 0=no damage to plant)
# Outline: as §1
# [5] = system: Euphorbia heterophylla (EPHHL); conditions: Application Rate 500 g/Ha, evaluated after 13 days; for pest or weed control at 500 g/ha: Euphorbia heterophylla, post-emergence, 312 h, read-out: Control of weed species after post-emergence application, EPHHL (100=total damage to plant; 0=no damage to plant)
# Outline: as §1
# [6] = system: Ipomoea hederacea (IPOHE); conditions: Application Rate 500 g/Ha, evaluated after 13 days; for pest or weed control at 500 g/ha: Ipomoea hederacea, post-emergence, 312 h, read-out: Control of weed species after post-emergence application, IPOHE (100=total damage to plant; 0=no damage to plant)
# Outline: as §1
# Lolium perenne (LOLPE) = conditions: Application Rate 500 g/Ha, evaluated after 13 days; for pest or weed control at 500 g/ha: Lolium perenne, post-emergence, 312 h, read-out: Control of weed species after post-emergence application, LOLPE (100=total damage to plant; 0=no damage to plant)
# Outline: as §1
# Setaia fabei (SETFA) = conditions: Application Rate 500 g/Ha, evaluated after 13 days; for pest or weed control at 500 g/ha: Setaria faberi, post-emergence, 312 h, read-out: Control of weed species after post-emergence application, SETFA (100=total damage to plant; 0=no damage to plant)
# Outline: as §1
SMILES,pest or weed control at 500 g/ha [1] [%],pest or weed control at 500 g/ha [2] [%],pest or weed control at 500 g/ha [3] [%],pest or weed control at 500 g/ha [4] [%],pest or weed control at 500 g/ha (Eleusine indica (ELEIN)) [%],pest or weed control at 500 g/ha [5] [%],pest or weed control at 500 g/ha [6] [%],pest or weed control at 500 g/ha (Lolium perenne (LOLPE)) [%],pest or weed control at 500 g/ha (Setaia fabei (SETFA)) [%],"Control of weed species after post-emergence application, AMAPA (100=total damage to plant; 0=no damage to plant) [1]","Control of weed species after post-emergence application, CHEAL (100=total damage to plant; 0=no damage to plant) [2]","Control of weed species after post-emergence application, DIGSA (100=total damage to plant; 0=no damage to plant) [3]","Control of weed species after post-emergence application, ECHCG (100=total damage to plant; 0=no damage to plant) [4]","Control of weed species after post-emergence application, ELEIN (100=total damage to plant; 0=no damage to plant) (Eleusine indica (ELEIN))","Control of weed species after post-emergence application, EPHHL (100=total damage to plant; 0=no damage to plant) [5]","Control of weed species after post-emergence application, IPOHE (100=total damage to plant; 0=no damage to plant) [6]","Control of weed species after post-emergence application, LOLPE (100=total damage to plant; 0=no damage to plant) (Lolium perenne (LOLPE))","Control of weed species after post-emergence application, SETFA (100=total damage to plant; 0=no damage to plant) (Setaia fabei (SETFA))"
O=S(=O)([O-])CCC[n+]1ccc(-c2ccon2)cn1 [Compound A59],90,90,70,70,90,100,80,70,80,,,,,,,,,
CCOC(=O)c1coc(-c2cc[n+](CCC(=O)O)nc2)n1 [Compound A126],90,70,90,60,90,70,30,60,70,,,,,,,,,
"O=S(=O)([O-])CC[n+]1ccc(-c2nccs2)cn1 [Compound A1, 2-(4-thiazol-2-ylpyridazin-1-ium-1-yl)ethanesulfonate]",100,70,100,60,50,70,50,90,50,,,,,,,,,
Cc1nc(-c2cc[n+](CCS(=O)(=O)[O-])nc2)sc1C [Compound A17],30,30,50,40,60,40,30,50,50,,,,,,,,,
"Cc1cnc(-c2cc[n+](CCC(=O)O)nc2)o1 [Compound A15, 3-[4-(5-methyloxazol-2-yl)pyridazin-1-ium-1-yl]propanoic acid; 2,2,2-trifluoroacetate]",100,80,80,80,100,100,30,60,70,,,,,,,,,
O=S(=O)(O)CCCC[n+]1ccc(-c2ncco2)cn1 [Compound A68],,,,,,,,,,100,90,70,60,70,90,50,70,80
O=S(=O)([O-])CC[n+]1ccc(-c2ncsn2)cn1 [Compound A143],100,90,100,100,100,100,60,100,90,,,,,,,,,
CS(=O)(=O)C[N-]C(=O)CCC[n+]1ccc(-c2ncco2)cn1 [Compound A74],100,90,90,40,100,70,80,60,80,,,,,,,,,
